# In paper PMC8041284, “Tunable Methacrylamides for Covalent Ligand Directed Release Chemistry” (Journal of the American Chemical Society, 2021):
# Read-outs that look alike come from different tables or passages of the source. Where a SMILES comes first, the peptide text is derived from it. Bridges are numbered along the chain shown (N, C = ends). [ ]: non-standard residue; d: D form. The star is where a group is joined. Dolaproine = CO[C@@H]([C@@H]1CCCN1)[C@@H](C)C(=O)O; Dil = CC[C@H](C)[C@H](NC)[C@@H](CC(=O)O)OC; X2 = C[C@@H](N*)[C@@H](O)c1ccccc1; NMeV = CN[C@H](C(=O)O)C(C)C
# Target: BTK (Homo sapiens, UniProt Q06187)
# Sequence (Q06187 402-655 limits assumed): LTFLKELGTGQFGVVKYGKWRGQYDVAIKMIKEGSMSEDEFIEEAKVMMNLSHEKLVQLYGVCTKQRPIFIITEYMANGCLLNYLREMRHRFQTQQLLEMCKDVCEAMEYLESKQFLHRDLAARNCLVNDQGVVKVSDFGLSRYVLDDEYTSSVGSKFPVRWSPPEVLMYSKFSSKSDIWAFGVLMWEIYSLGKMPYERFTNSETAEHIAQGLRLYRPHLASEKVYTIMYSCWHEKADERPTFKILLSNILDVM
# Assay: biochemical
# [1] = read-out: BTK inhibition (%), 0.75 uM BTK, […] probe 3l, 15 min preincubation
SMILES,inhibition at 10 µM [1] [%],inhibition at 10 µM (read-out: BTK inhibition (%)) [%]
CCC[C@@H]1C[C@@H](C(=O)N[C@@H]([C@H]2O[C@H](SC)[C@H](O)[C@@H](O)[C@H]2O)[C@@H](C)O)N(C)C1 [PCM-0095227],-4.7,
Fc1ccc(-c2c3cccc(C(F)(F)F)c3nn2Cc2ccc(F)cc2Cl)cc1 [PCM-0215789],30.1,
COc1ccc([C@H]2CNC(=O)C2)cc1OC1CCCC1 [PCM-0095307],7,
O=C(O)CSCC(=O)NC1CCSC1=O (stereo not drawn) [PCM-0090679],-10.9,
Cc1nc(Nc2cnn(C3CCNCC3)c2)nc2c1N(C)C(=O)c1cc3ccccc3cc1N2C [PCM-0213384],30.3,
O=Cc1ccc(CO)o1 [PCM-0216119],-2.3,
CCCCCCC(O)C(=O)O (stereo not drawn) [PCM-0216106],-10,
CC(C)=CCC/C(C)=C\CO [PCM-0216032],3.1,
O=C1/C(=C/c2cccs2)CC/C1=C\c1cccs1 [PCM-0215307],6,
CCN1C[C@]2(COC)CC[C@H](OC)[C@]34C1[C@H]([C@H](OC)[C@H]23)[C@@]1(OC(C)=O)C[C@H](OC)[C@@]2(O)C[C@@H]4[C@@H]1[C@H]2OC(=O)c1ccc(OC)cc1 [PCM-0216304],,-17
OC[C@@H](O)[C@@H](O)[C@H](O)[C@@H](O)CO [PCM-0090796],-19.5,
CN1CCN(c2ccc(OC(F)(F)F)c(Nc3ncc4c(n3)-c3c(c(C(N)=O)nn3CCO)CC4)c2)CC1 [PCM-0215357],-26.9,
COc1ccc(-c2cc3c(C)nc(N)nc3n(C3CCC(OCCO)CC3)c2=O)cn1 (stereo not drawn) [PCM-0095467],-9.7,
C=C[C@@H]1C[C@]1(NC(=O)[C@@H]1C[C@@H](Oc2ncc(OC)c3ccc(Cl)cc23)CN1C(=O)[C@@H](NC(=O)OC(C)(C)C)C(C)(C)C)C(=O)NS(=O)(=O)C1CC1 [PCM-0215095],-4.7,
CCC[S+]([O-])c1ccc2nc(NC(=O)OC)[nH]c2c1 (stereo not drawn) [PCM-0095157],20.2,
CCCCCCCCCCCCCCCC(=O)OC[C@H](O)[C@H]1OC(=O)C(O)=C1O [PCM-0095304],-34.2,
CC[C@H](C)[C@@H]([C@@H](CC(=O)N1CCC[C@H]1[C@H](OC)[C@@H](C)C(=O)N[C@H](C)[C@@H](O)c1ccccc1)OC)N(C)C(=O)[C@@H](NC(=O)[C@@H](NC)C(C)C)C(C)C [PCM-0215521] (H-[NMeV]V[Dil][Dolaproine]-X2),,-3.9
CCc1cc(Nc2nc(-c3ccc(-n4cnc(C)c4)c(F)c3)cs2)c(C)cc1C [PCM-0215986],10,
C[C@H]1CNCCCN1S(=O)(=O)c1cccc2cncc(F)c12 [PCM-0215585],-14.5,
COc1nc(N)nc2c1ncn2[C@@H]1O[C@H](CO)[C@@H](O)[C@@H]1O [PCM-0094930],-3.1,

SMILES,inhibition at 10 µM [1] [%],inhibition at 10 µM (read-out: BTK inhibition (%)) [%]
OC1CCC(Nc2ncc3nc(Nc4c(F)cc(F)cc4F)n([C@H]4CCOC4)c3n2)CC1 (stereo partly drawn) [PCM-0214575],-10.3,
CCCSc1ccc2nc(NC(=O)OC)[nH]c2c1 [PCM-0085774],-10.1,
CSCCC(N)C(=O)O (stereo not drawn) [PCM-0216617],17.9,
CC/C=C(\C(=O)N[C@@H]1C(=O)N2C(C(=O)OCOC(=O)C(C)(C)C)=C(COC(N)=O)CS[C@H]12)c1csc(N)n1 [PCM-0215081],8.6,
O=C(O)CCCCCCCC(O)C(O)CCCCCCO (stereo not drawn) [PCM-0215978],-13.1,
NC(=O)c1ccc(I)c([N+](=O)[O-])c1 [PCM-0095053],-1.4,
Cc1cc(C)c(CN2CCc3c(Cl)cc(-c4c(C)noc4C)c(Cl)c3C2=O)c(=O)[nH]1 [PCM-0215872],-8.5,
CC1=C[C@@]2(O)O[C@@]3(CC2=C(C)C)[C@@H](C)CC[C@@H]13 [PCM-0214997],20.7,
CNc1ccc([N+](=O)[O-])c(Nc2ccc3[nH]ncc3c2)n1 [PCM-0215769],32.4,
COC1=C2C[C@@H](C)C[C@H](OC)[C@H](O)[C@@H](C)/C=C(\C)[C@H](OC(N)=O)[C@@H](OC)/C=C\C=C(/C)C(=O)NC(=CC1=O)C2=O [PCM-0095416],0,
CC(/C=C/C=C(\C)C(=O)O[C@@H]1O[C@H](CO[C@@H]2O[C@H](CO)[C@@H](O)[C@H](O)[C@H]2O)[C@@H](O)[C@H](O)[C@H]1O)=C\C=C\C=C(C)\C=C\C=C(/C)C(=O)O[C@@H]1O[C@H](CO[C@@H]2O[C@H](CO)[C@@H](O)[C@H](O)[C@H]2O)[C@@H](O)[C@H](O)[C@H]1O [PCM-0214941],-8.6,
CCC/C=C1\OC(=O)C2=C1CCC=C2 [PCM-0216295],14.7,
Cc1ccccc1CN1C(=O)C2=C(CCN(Cc3ccccc3)C2)N2CCN=C12 [PCM-0215534],,-13.8
CC(=O)O [PCM-0215080],-2.3,
COc1cc(-c2oc3cc(O)cc(O)c3c(=O)c2O[C@@H]2O[C@H](CO[C@@H]3O[C@@H](C)[C@H](O)[C@@H](O)[C@H]3O)[C@@H](O)[C@H](O)[C@H]2O[C@@H]2O[C@@H](C)[C@H](O)[C@@H](O)[C@H]2O)ccc1O [PCM-0216372],7.7,
Cc1cc(C)cc(C(=O)NOCCCCCC(=O)NO)c1 [PCM-0215409],9.3,
CCOC(=O)c1csc(Nc2ccc(Cl)cc2)n1 [PCM-0215549],17.8,
COc1cccc2c1C(=O)c1c(O)c3c(c(O)c1C2=O)C[C@@](O)(C(=O)CO)C[C@@H]3O[C@H]1C[C@H](N)[C@H](O)[C@H](C)O1 [PCM-0086032],42.8,
CN(C)CCC=C1c2ccccc2CCc2ccccc21 [PCM-0064521],-22.6,
O=C(NCCO[N+](=O)[O-])c1cccnc1 [PCM-0085806],-5.4,

# Second part, led by results:
inhibition at 10 µM [1] [%],SMILES,inhibition at 10 µM (read-out: BTK inhibition (%)) [%]
-11.6,CN[C@@H](C)C(=O)N[C@H](C(=O)N1CCC[C@H]1c1nc(C(=O)c2ccc(F)cc2)cs1)C1CCCCC1 [PCM-0215366],
40,C[C@@H]1C[C@H]2[C@@H]3CCC4=CC(=O)C=C[C@]4(C)[C@@]3(Cl)[C@@H](O)C[C@]2(C)[C@@]1(OC(=O)c1ccco1)C(=O)CCl [PCM-0085978],
4.7,Cc1ccccc1C(=O)Nc1ccc(C(=O)N2CCCC(O)c3cc(Cl)ccc32)c(C)c1 (stereo not drawn) [PCM-0095415],
10.2,CN1[C@@H]2CCC[C@H]1CC(NC(=O)c1nn(C)c3ccccc13)C2 (stereo partly drawn) [PCM-0064932],
7.7,O=C(O)COc1ccc(Br)cc1/C=C1\SC(=S)N(Cc2cccnc2)C1=O [PCM-0216029],
81.4,COCCNCc1ccc(-c2cc3nccc(Oc4ccc(NC(=O)C5(C(=O)Nc6ccc(F)cc6)CC5)cc4F)c3s2)nc1 [PCM-0215838],
15.2,O=C(CCc1ccc(O)cc1)c1c(O)cc(O)cc1O [PCM-0065552],
1.5,Cc1cc(-c2ncc(CC(=O)Nc3ccc(-c4cnccn4)cn3)cc2C)ccn1 [PCM-0215274],
-9,CNC(=O)c1cc(Oc2ccc3nc(N[C@@H]4CCCC[C@H]4O)sc3c2)ccn1 [PCM-0215436],
-9.3,C[N+]1(C)C2CCC1CC(OC(=O)C(O)c1ccccc1)C2 (stereo not drawn) [PCM-0095577],
-3.4,CC(=O)OCC(=O)NCCCOc1cccc(CN2CCCCC2)c1 [PCM-0086003],
6.8,Cc1ccc(NCCN(C)CCNc2ccnc3cc(Cl)ccc23)c2c(=O)c3ccccc3sc12 [PCM-0215874],
29,CCN(CC)CCNC(=O)c1c(C)[nH]c(/C=C2\C(=O)Nc3ccc(-c4csc(-c5ccccc5)n4)cc32)c1C [PCM-0215844],
-14.5,CNC(=O)c1ccc(C)c(-n2c(C)cc(OCc3ccc(F)cc3F)c(Br)c2=O)c1 [PCM-0095443],
-4.3,CCC[C@H](N[C@@H](C)C(=O)N1[C@H](C(=O)O)C[C@@H]2CCCC[C@@H]21)C(=O)OCC [PCM-0095182],
0.8,O=C(O)c1cc2cccc([N+](=O)[O-])c2[nH]1 [PCM-0095778],

inhibition at 10 µM [1] [%],SMILES,inhibition at 10 µM (read-out: BTK inhibition (%)) [%]
-3.9,CCOC(=O)[C@H](CCc1ccccc1)N[C@@H](C)C(=O)N1[C@H](C(=O)O)C[C@@H]2CCC[C@@H]21 [PCM-0086308],
-3.4,NCCCC[C@H](NC(=O)[C@@H]1CCCN1C(=O)[C@@H]1CSSC[C@H](NC(=O)CNC(=O)CNC(=O)CN)C(=O)N[C@@H](Cc2ccc(O)cc2)C(=O)N[C@@H](Cc2ccccc2)C(=O)N[C@@H](CCC(N)=O)C(=O)N[C@@H](CC(N)=O)C(=O)N1)C(=O)NCC(N)=O [PCM-0216274] (H-GGGCYFQNCPKG-NH2; disulfide 4-9),
17.1,CC(C)[C@H](C(=O)Nc1ccc(C(=O)NO)cc1)c1ccccc1 [PCM-0095283],
67.6,CNC(=O)c1ccccc1Nc1nc(Nc2ccc(N3CCOCC3)cc2OC)ncc1Cl [PCM-0095447],
-13.1,C[C@H]1CN(C[C@H](Cc2ccccc2)C(=O)NCC(=O)O)CC[C@@]1(C)c1cccc(O)c1 [PCM-0216566],
-18.7,C[C@](N)(Cc1ccc(O)c(O)c1)C(=O)O [PCM-0065509],
11.6,O=c1cc(-c2ccc(O)cc2)oc2cc(O)c([C@@H]3O[C@H](CO)[C@@H](O)[C@H](O)[C@H]3O)c(O)c12 [PCM-0216601],
-17,O=C(O)CCCNC(=O)c1cccnc1 [PCM-0216143],
27.8,COc1cc(C(=O)O)ccc1NC(=O)[C@@H]1N[C@@H](CC(C)(C)C)[C@](C#N)(c2ccc(Cl)cc2F)[C@H]1c1cccc(Cl)c1F [PCM-0215391],
79.4,O=c1cc(-c2ccccc2)oc2cc(O)c(O)c(O)c12 [PCM-0214670],
-10.9,CCCc1nc2c(C)cc(-c3nc4ccccc4n3C)cc2n1Cc1ccc(-c2ccccc2C(=O)O)cc1 [PCM-0086294],
10.3,Cc1cc(C(C)Nc2ccccc2)c2nc(N3CCOCC3)cc(=O)n2c1 (stereo not drawn) [PCM-0095022],
-6.9,Cn1cnc(-c2cc3nccc(Oc4ccc(NC(=S)NC(=O)Cc5ccccc5)cc4F)c3s2)c1 [PCM-0094974],
-3.4,CCCC(=O)O[C@]1(C(=O)COC(C)=O)CC[C@H]2[C@@H]3C[C@H](F)C4=CC(=O)C=C[C@]4(C)[C@@]3(F)[C@@H](O)C[C@@]21C [PCM-0214767],
-4.7,Cc1ccccc1N1C(=O)c2cc(S(N)(=O)=O)c(Cl)cc2NC1C (stereo not drawn) [PCM-0065217],
-10.3,CONC(=O)c1ccccc1Nc1cc(Nc2cc(C)nn2C(C)C)ncc1Cl [PCM-0215811],
